Patent publication US10035804B2, “Spirodiamine derivatives as aldosterone synthase inhibitors” (Hoffmann-La Roche Inc., priority 2014, dated 2018)

Experiments:
human CYP11B2 = human CYP11B2 (Homo sapiens (Human), UniProt P19099); assay: G-402 cellular enzyme assay, human CYP11B2 (aldosterone release); assay type: cell-based; settings: G-402 cells expressing human CYP11B2; 1 μM Deoxycorticosterone; aldosterone in supernatant after 16 h
From the text: (§1) Herein we identified the use of the G-402 cell line as a host cell to ectopically express (transiently or stably) enzymes of the CYP11 family. Specifically we developed stable G-402 cells expressing ectopically human CYP11B1, human CYP11B2, human CYP11A1, cynmolgus CYP11B1 or cynomolgus CYP11B2 enzyme activity. Importantly the identified cell line G-402 expresses co-factors (adrenodoxin and adrenodoxin reductase) important for the activity of the CYP11 family and no relevant enzyme activity of the CYP11 family (in comparison to H295R cells) was detected in these cells. Therefore the G-402 cell line is uniquely suited as a host cell for the ectopic expression of enzymes from the CYP11 family.
(§2) G-402 cells can be obtained from ATCC (CRL-1440) and were originally derived from a renal leiomyoblastoma.
(§3) The expression plasmids contains the ORF for either human/cyno CYP11B1 or CYP11B2 under the control of a suitable promoter (CMV-promoter) and a suitable resistance marker (neomycin). Using standard techniques the expression plasmid is transfected into G-402 cells and these cells are then selected for expressing the given resistance markers. Individual cell-clones are then selected and assessed for displaying the desired enzymatic activity using 11-Deoxycorticosterone (Cyp11B2) or 11-Deoxycortisol (Cyp11B1) as a substrate.
(§4) G-402 cells expressing CYP11 constructs were established as described above and maintained in McCoy's 5a Medium Modified, ATCC Catalog No. 30-2007 containing 10% FCS and 400 μg/ml G418 (Geneticin) at 37° C. under an atmosphere of 5% CO2/95% air. Cellular enzyme assays were performed in DMEM/F12 medium containing 2.5% charcoal treated FCS and appropriate concentration of substrate (0.3-10 uM 11-Deoxycorticosterone, 11-Deoxycortisol or Corticosterone). For assaying enzymatic activity, cells were plated onto 96 well plates and incubated for 16 h. An aliquot of the supernatant is then transferred and analyzed for the concentration of the expected product (Aldosterone for CYP11B2; Cortisol for CYP11B1). The concentrations of these steroids can be determined using HTRF assays from CisBio analyzing either Aldosterone or Cortisol.
(§5) Inhibition of the release of produced steroids can be used as a measure of the respective enzyme inhibition by test compounds added during the cellular enzyme assay. The dose dependent inhibition of enzymatic activity by a compound is calculated by means of plotting added inhibitor concentrations (x-axes) vs. measured steroid/product level (y-axes). The inhibition is then calculated by fitting the following 4-parameter sigmoidal function (Morgan-Mercer-Flodin (MMF) model) to the raw data points using the least squares method:
(§6) [formula] wherein, A is the maximum y value, B is the EC50 factor determined using XLFit, C is the minimum y value and D is the slope value.
(§7) EC50 values for compounds claimed herein were tested with the G402-based assay system described. Cyp11B2 enzyme activity was tested in presence of 1 μM Deoxycorticosterone and variable amounts of inhibitors; Cyp11B1 enzyme activity was tested in presence of 1 μM Deoxycortisol and variable amounts of inhibitors.

human CYP11B1 = human CYP11B1 (Homo sapiens (Human), UniProt P15538); assay: G-402 cellular enzyme assay, human CYP11B1 (cortisol release); assay type: cell-based; settings: G-402 cells expressing human CYP11B1; 1 μM Deoxycortisol; cortisol in supernatant after 16 h
From the text: as §1, §2, §3, §4, §5, §6, §7

Sequence of human CYP11B2 (P19099 25-503): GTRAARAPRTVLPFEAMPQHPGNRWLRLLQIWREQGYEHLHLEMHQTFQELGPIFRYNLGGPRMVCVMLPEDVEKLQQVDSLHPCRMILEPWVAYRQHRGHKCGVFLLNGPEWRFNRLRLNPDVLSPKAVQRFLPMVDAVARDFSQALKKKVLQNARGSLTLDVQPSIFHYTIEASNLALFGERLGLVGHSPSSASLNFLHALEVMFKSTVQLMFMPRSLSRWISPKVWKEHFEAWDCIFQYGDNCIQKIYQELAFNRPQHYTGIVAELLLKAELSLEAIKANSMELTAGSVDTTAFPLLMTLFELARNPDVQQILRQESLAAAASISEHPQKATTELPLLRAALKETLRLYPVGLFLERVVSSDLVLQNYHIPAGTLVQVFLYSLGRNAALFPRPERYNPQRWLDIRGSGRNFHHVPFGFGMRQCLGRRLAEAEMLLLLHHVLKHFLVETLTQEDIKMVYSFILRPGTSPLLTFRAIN
Sequence of human CYP11B1 (P15538 25-503): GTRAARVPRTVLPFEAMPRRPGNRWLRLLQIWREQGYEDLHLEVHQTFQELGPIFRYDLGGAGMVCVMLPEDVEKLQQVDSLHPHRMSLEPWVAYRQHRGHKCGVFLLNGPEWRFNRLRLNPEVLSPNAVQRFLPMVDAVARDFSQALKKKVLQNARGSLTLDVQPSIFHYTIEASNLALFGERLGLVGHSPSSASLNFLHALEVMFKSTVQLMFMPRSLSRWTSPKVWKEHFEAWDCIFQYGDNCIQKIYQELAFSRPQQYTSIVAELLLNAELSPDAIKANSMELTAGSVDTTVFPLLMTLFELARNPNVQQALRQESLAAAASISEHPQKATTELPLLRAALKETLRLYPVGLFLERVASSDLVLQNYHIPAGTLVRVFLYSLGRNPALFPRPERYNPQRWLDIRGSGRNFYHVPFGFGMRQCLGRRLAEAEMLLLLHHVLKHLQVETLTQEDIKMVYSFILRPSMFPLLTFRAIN

Cn1cc(C(=O)N2CC3(C2)CN(c2cncc(N4C(=O)c5ccc(Cl)cc5C4(C)C)c2)C3)cn1 [Example 1, 5-Chloro-3,3-dimethyl-2-[5-[2-(1-methylpyrazole-4-carbonyl)-2,6-diazaspiro[3.3]-heptan-6-yl]-3-pyridyl]isoindolin-1-one]
EC50 (human CYP11B2): 0.002 nM | EC50 (human CYP11B1): 11.3 nM

CCn1cc(C(=O)N2CC3(C2)CN(c2cncc(N4C(=O)c5ccc(Cl)cc5C4(C)C)c2)C3)cn1 [Example 2, 5-Chloro-2-[5-[2-(1-ethylpyrazole-4-carbonyl)-2,6-diazaspiro[3.3]heptan-6-yl]-3-pyridyl]-3,3-dimethyl-isoindolin-1-one]
EC50 (human CYP11B2): 0.003 nM | EC50 (human CYP11B1): 11.1 nM

CC(C)n1cc(C(=O)N2CC3(C2)CN(c2cncc(N4C(=O)c5ccc(Cl)cc5C4(C)C)c2)C3)cn1 [Example 3, 5-Chloro-2-[5-[2-(1-isopropylpyrazole-4-carbonyl)-2,6-diazaspiro[3.3]heptan-6-yl]-3-pyridyl]-3,3-dimethyl-isoindolin-1-one]
EC50 (human CYP11B2): 0.0083 nM | EC50 (human CYP11B1): 11.1 nM

Cn1ccnc1C(=O)N1CC2(C1)CN(c1cncc(N3C(=O)c4ccc(Cl)cc4C3(C)C)c1)C2 [Example 4, 5-Chloro-3,3-dimethyl-2-[5-[2-(1-methylimidazole-2-carbonyl)-2,6-diazaspiro[3.3]heptan-6-yl]-3-pyridyl]isoindolin-1-one]
EC50 (human CYP11B2): 0.0099 nM | EC50 (human CYP11B1): 1.1 nM

Cn1nccc1C(=O)N1CC2(C1)CN(c1cncc(N3C(=O)c4ccc(Cl)cc4C3(C)C)c1)C2 [Example 5, 5-Chloro-3,3-dimethyl-2-[5-[2-(2-methylpyrazole-3-carbonyl)-2,6-diazaspiro[3.3]heptan-6-yl]-3-pyridyl]isoindolin-1-one]
EC50 (human CYP11B2): 0.145 nM | EC50 (human CYP11B1): 15.7 nM

Cn1cncc1C(=O)N1CC2(C1)CN(c1cncc(N3C(=O)c4ccc(Cl)cc4C3(C)C)c1)C2 [Example 6, 5-Chloro-3,3-dimethyl-2-[5-[2-(3-methylimidazole-4-carbonyl)-2,6-diazaspiro[3.3]heptan-6-yl]-3-pyridyl]isoindolin-1-one]
EC50 (human CYP11B2): 0.0117 nM | EC50 (human CYP11B1): 7.94 nM

Cc1ccncc1C(=O)N1CC2(C1)CN(c1cncc(N3C(=O)c4ccc(Cl)cc4C3(C)C)c1)C2 [Example 7, 5-Chloro-3,3-dimethyl-2-[5-[2-(4-methylpyridine-3-carbonyl)-2,6-diazaspiro[3.3]heptan-6-yl]-3-pyridyl]isoindolin-1-one]
EC50 (human CYP11B2): 0.0138 nM | EC50 (human CYP11B1): 25.7 nM

Cn1cc(C(=O)N2CC3(C2)CN(c2cncc(N4C(=O)c5ccc(C#N)cc5C4(C)C)c2)C3)cn1 [Example 8, 3,3-Dimethyl-2-[5-[2-(1-methylpyrazole-4-carbonyl)-2,6-diazaspiro[3.3]heptan-6-yl]-3-pyridyl]-1-oxo-isoindoline-5-carbonitrile]
EC50 (human CYP11B2): 0.112 nM | EC50 (human CYP11B1): > 30 nM

CCn1cc(C(=O)N2CC3(C2)CN(c2cncc(N4C(=O)c5ccc(C#N)cc5C4(C)C)c2)C3)cn1 [Example 9, 2-[5-[2-(1-Ethylpyrazole-4-carbonyl)-2,6-diazaspiro[3.3]heptan-6-yl]-3-pyridyl]-3,3-dimethyl-1-oxo-isoindoline-5-carbonitrile]
EC50 (human CYP11B2): 0.009 nM | EC50 (human CYP11B1): 24.4 nM

CC(C)n1cc(C(=O)N2CC3(C2)CN(c2cncc(N4C(=O)c5ccc(C#N)cc5C4(C)C)c2)C3)cn1 [Example 10, 2-[5-[2-(1-Isopropylpyrazole-4-carbonyl)-2,6-diazaspiro[3.3]heptan-6-yl]-3-pyridyl]-3,3-dimethyl-1-oxo-isoindoline-5-carbonitrile]
EC50 (human CYP11B2): 0.0155 nM | EC50 (human CYP11B1): 25.6 nM

Cn1ccnc1C(=O)N1CC2(C1)CN(c1cncc(N3C(=O)c4ccc(C#N)cc4C3(C)C)c1)C2 [Example 11, 3,3-Dimethyl-2-[5-[2-(1-methylimidazole-2-carbonyl)-2,6-diazaspiro[3.3]heptan-6-yl]-3-pyridyl]-1-oxo-isoindoline-5-carbonitrile]
EC50 (human CYP11B2): 0.0252 nM | EC50 (human CYP11B1): 4.76 nM

Cn1nccc1C(=O)N1CC2(C1)CN(c1cncc(N3C(=O)c4ccc(C#N)cc4C3(C)C)c1)C2 [Example 12, 3,3-Dimethyl-2-[5-[2-(2-methylpyrazole-3-carbonyl)-2,6-diazaspiro[3.3]heptan-6-yl]-3-pyridyl]-1-oxo-isoindoline-5-carbonitrile]
EC50 (human CYP11B2): 0.191 nM | EC50 (human CYP11B1): > 30 nM

Cn1cncc1C(=O)N1CC2(C1)CN(c1cncc(N3C(=O)c4ccc(C#N)cc4C3(C)C)c1)C2 [Example 13, 3,3-Dimethyl-2-[5-[2-(3-methylimidazole-4-carbonyl)-2,6-diazaspiro[3.3]heptan-6-yl]-3-pyridyl]-1-oxo-isoindoline-5-carbonitrile]
EC50 (human CYP11B2): 0.0278 nM | EC50 (human CYP11B1): 26.4 nM

Cc1ccncc1C(=O)N1CC2(C1)CN(c1cncc(N3C(=O)c4ccc(C#N)cc4C3(C)C)c1)C2 [Example 14, 3,3-Dimethyl-2-[5-[2-(4-methylpyridine-3-carbonyl)-2,6-diazaspiro[3.3]heptan-6-yl]-3-pyridyl]-1-oxo-isoindoline-5-carbonitrile]
EC50 (human CYP11B2): 0.0407 nM | EC50 (human CYP11B1): 21 nM

COc1ccc2c(n1)C(C)(C)N(c1cncc(N3CC4(CN(C(=O)c5cnn(C)c5)C4)C3)c1)C2=O [Example 15, 2-Methoxy-7,7-dimethyl-6-[5-[2-(1-methylpyrazole-4-carbonyl)-2,6-diazaspiro[3.3]heptan-6-yl]-3-pyridyl]pyrrolo[3,4-b]pyridin-5-one]
EC50 (human CYP11B2): 0.0205 nM | EC50 (human CYP11B1): 18.9 nM

COc1ccc2c(n1)C(C)(C)N(c1cncc(N3CC4(CN(C(=O)c5cnccc5C)C4)C3)c1)C2=O [Example 16, 2-Methoxy-7,7-dimethyl-6-[5-[2-(4-methylpyridine-3-carbonyl)-2,6-diazaspiro[3.3]heptan-6-yl]-3-pyridyl]pyrrolo[3,4-b]pyridin-5-one]
EC50 (human CYP11B2): 0.0827 nM | EC50 (human CYP11B1): 29.3 nM

COc1ccc2c(n1)C(C)(C)N(c1cncc(N3CC4(CN(C(=O)c5ccnn5C)C4)C3)c1)C2=O [Example 17, 2-Methoxy-7,7-dimethyl-6-[5-[2-(2-methylpyrazole-3-carbonyl)-2,6-diazaspiro[3.3]heptan-6-yl]-3-pyridyl]pyrrolo[3,4-b]pyridin-5-one]
EC50 (human CYP11B2): 0.901 nM | EC50 (human CYP11B1): 33.2 nM

CC1c2cc(Cl)ccc2C(=O)N1c1cncc(N2CC3(CN(C(=O)c4cnn(C)c4)C3)C2)c1 (centres unmarked) [Example 18, 5-Chloro-3-methyl-2-[5-[2-(1-methylpyrazole-4-carbonyl)-2,6-diazaspiro[3.3]heptan-6-yl]-3-pyridyl]isoindolin-1-one]
EC50 (human CYP11B2): 0.0078 nM | EC50 (human CYP11B1): 16.7 nM

Cn1cc(C(=O)N2CCC3(CC2)CN(c2cncc(N4C(=O)c5ccc(Cl)cc5C4(C)C)c2)C3)cn1 [Example 56, 5-Chloro-3,3-dimethyl-2-[5-[7-(1-methylpyrazole-4-carbonyl)-2,7-diazaspiro[3.5]nonan-2-yl]-3-pyridyl]isoindolin-1-one]
EC50 (human CYP11B1): 18.8 nM

CCn1cc(C(=O)N2CCC3(CC2)CN(c2cncc(N4C(=O)c5ccc(Cl)cc5C4(C)C)c2)C3)cn1 [Example 58, 5-Chloro-2-[5-[7-(1-ethylpyrazole-4-carbonyl)-2,7-diazaspiro[3.5]nonan-2-yl]-3-pyridyl]-3,3-dimethyl-isoindolin-1-one]
EC50 (human CYP11B1): 9.64 nM

Cn1cc(C(=O)N2CC3(CCN(c4cncc(N5C(=O)c6ccc(Cl)cc6C5(C)C)c4)CC3)C2)cn1 [Example 59, 5-Chloro-3,3-dimethyl-2-[5-[2-(1-methylpyrazole-4-carbonyl)-2,7-diazaspiro[3.5]nonan-7-yl]-3-pyridyl]isoindolin-1-one]
EC50 (human CYP11B1): 0.819 nM

CCn1cc(C(=O)N2CC3(CCN(c4cncc(N5C(=O)c6ccc(Cl)cc6C5(C)C)c4)CC3)C2)cn1 [Example 60, 5-Chloro-2-[5-[2-(1-ethylpyrazole-4-carbonyl)-2,7-diazaspiro[3.5]nonan-7-yl]-3-pyridyl]-3,3-dimethyl-isoindolin-1-one]
EC50 (human CYP11B1): 0.892 nM

Cc1ccncc1C(=O)N1CC2(CCN(c3cncc(N4C(=O)c5ccc(Cl)cc5C4(C)C)c3)CC2)C1 [Example 61, 5-Chloro-3,3-dimethyl-2-[5-[2-(4-methylpyridine-3-carbonyl)-2,7-diazaspiro[3.5]nonan-7-yl]-3-pyridyl]isoindolin-1-one]
EC50 (human CYP11B1): 2.11 nM
